Test results: patent US7572809B2, “Isoquinoline aminopyrazole derivatives” (Hoffmann-La Roche Inc., priority 2005, dated 2009)

The compounds below were run against T1, Aurora A kinase (Homo sapiens, UniProt O14965) (assay: IC50 determination for inhibitors of Aurora A kinase (ELISA, GST-Histone H3 substrate)). Details: mutant Aurora A kinase, 30 μM ATP, 40 minutes; read-out: IC50 Aurora A kinase inhibition.
T1 sequence (O14965 1-403): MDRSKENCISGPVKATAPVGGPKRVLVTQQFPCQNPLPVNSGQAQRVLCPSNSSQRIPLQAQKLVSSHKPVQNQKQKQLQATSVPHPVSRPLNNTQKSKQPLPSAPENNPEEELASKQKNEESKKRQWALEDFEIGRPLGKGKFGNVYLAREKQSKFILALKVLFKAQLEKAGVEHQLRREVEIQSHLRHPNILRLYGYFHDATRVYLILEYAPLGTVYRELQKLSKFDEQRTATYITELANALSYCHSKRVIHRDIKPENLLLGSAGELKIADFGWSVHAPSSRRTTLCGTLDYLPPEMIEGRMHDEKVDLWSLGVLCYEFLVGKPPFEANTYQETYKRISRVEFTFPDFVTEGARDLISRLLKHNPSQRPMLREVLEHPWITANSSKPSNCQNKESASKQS
Type: biochemical
Description: IC50 Determination for Inhibitors of Aurora A Kinase
Aurora A is a Serine Threonine Kinase Involved in Spindle Assembly and Chromosome Segregation.
The assay is a typically ELISA-type assay where substrate (GST-Histone H3) is coupled to the assay-plate and is phosphorylated by the kinase. Phosphorylation is detected by a mouse anti-Phosphopeptid mAb and an HRP-labeled anti-mouse pAb. The assay is validated for IC50-determination.
Kinase activities were measured by Enzyme-Linked Immunosorbent Assay (ELISA): Maxisorp 384-well plates (Nunc) were coated with recombinant fusion protein comprising residues 1-15 of HistoneH3 fused to the N-terminus of Glutathione-S-Transferase. Plates were then blocked with a solution of 1 mg/mL I-block (Tropix cat# T2015—highly purified form of casein) in phosphate-buffered saline. Kinase reactions were carried out in the wells of the ELISA plate by combining an appropriate amount of mutant Aurora A kinase with test compound and 30 μM ATP. The reaction buffer was […] Kinase Buffer (Cell Signaling cat # 9802) supplemented with 1 μg/mL I-block. Reactions were stopped after 40 minutes by addition of 25 mM EDTA (ethylenediaminetetraacetic acid). After washing, substrate phosphorylation was detected by addition of anti-phospho-Histone H3 (Ser 10) 6G3 mAb (Cell Signaling cat #9706) and sheep anti-mouse pAb-HRP (Amersham cat# NA931V), followed by colorimetric development with TMB (3,3′,5,5′-tetramethylbenzidine from Kirkegaard & Perry Laboratories). After readout of the absorbance, IC50 values were calculated using a non-linear curve fit (XLfit® software (ID Business Solution Ltd., Guilford, Surrey, UK)).

SMILES	IC50 [nM]
c1ccc2c(-c3ccsc3)nc(Nc3cc[nH]n3)cc2c1 [Example 241, (1H-Pyrazol-3-yl)-(1-thiophen-3-yl-isoquinolin-3-yl)-amine]	946
COc1ccc2c(Sc3cccc(F)c3)nc(Nc3cc(C)[nH]n3)cc2c1 [Example 311, [1-(3-Fluoro-phenylsulfanyl)-6-methoxy-isoquinolin-3-yl]-(5-methyl-1H-pyrazol-3-yl)-amine]	210
Cc1cc(Nc2cc3cc(OCCN4CCOCC4)ccc3c(-c3ccccc3)n2)n[nH]1 [Example 299, (5-Methyl-1H-pyrazol-3-yl)-[6-(2-morpholin-4-yl-ethoxy)-1-phenyl-isoquinolin-3-yl]-amine]	297
COc1ccc2c(-c3ccc4ccccc4c3)nc(Nc3cc(C)[nH]n3)cc2c1 [Example 183, (5-Methyl-1H-pyrazol-3-yl)-(1-naphthalen-2-yl-6-methoxy-isoquinolin-3-yl)-amine]	390
Cc1cc(Nc2cc3ccccc3c(-c3ccncc3)n2)n[nH]1 [Example 162, (5-Methyl-1H-pyrazol-3-yl)-(1-pyridin-4-yl-isoquinolin-3-yl)-amine]	330
CC(C)COc1nc(Nc2cc[nH]n2)cc2ccccc12 [Example 99, (1-Isobutoxy-isoquinolin-3-yl)-(1H-pyrazol-3-yl)-amine]	1460
COc1cccc2c(-c3cccc(C#N)c3)nc(Nc3cc(C)[nH]n3)cc12 [Example 201, 3-[3-(5-Methyl-1H-pyrazol-3-ylamino)-5-methoxy-isoquinolin-1-yl]-benzonitrile]	47
Cc1cc(Nc2cc3ccccc3c(Sc3ccccc3)n2)n[nH]1 [Example 305, (5-Methyl-1H-pyrazol-3-yl)-(1-phenylsulfanyl-isoquinolin-3-yl)-amine]	497
Cc1cc(Nc2cc3ccccc3c(Nc3cccnc3)n2)n[nH]1 [Example 292, N^3-(5-methyl-1H-pyrazol-3-yl)-N^1-pyridin-3-yl-isoquinoline-1,3-diamine]	241
COc1cc2cc(Nc3cc(C)[nH]n3)nc(OC3CCCC3)c2cc1OC [Example 117, (1-Cyclopentyloxy-6,7-dimethoxy-isoquinolin-3-yl)-(5-methyl-1H-pyrazol-3-yl)-amine]	21
Cc1ccc(Oc2nc(Nc3cc(C)[nH]n3)cc3ccccc23)cc1 [Example 14, (5-Methyl-1H-pyrazol-3-yl)-(1-p-tolyloxy-isoquinolin-3-yl)-amine]	66
CC(=O)Nc1ccc(Oc2nc(Nc3cc(C)[nH]n3)cc3ccccc23)cc1 [Example 59, N-{4-[-3-(5-Methyl-1H-pyrazol-3-ylamino)-isoquinolin-1-yloxy]-phenyl}-acetamide]	39
COc1ccc2c(Nc3ccc(Br)cc3)nc(Nc3cc(C)[nH]n3)cc2c1 [Example 275, N^1-(4-Bromo-phenyl)-6-methoxy-N^3-(5-methyl-1H-pyrazol-3-yl)-isoquinoline-1,3-diamine]	43
COc1ccc(Nc2nc(Nc3cc[nH]n3)cc3ccccc23)cc1OC [Example 284, N^1-(3,4-Dimethoxy-phenyl)-N^3-(1H-pyrazol-3-yl)-isoquinoline-1,3-diamine]	259
c1ccc2c(-c3ccncc3)nc(Nc3cc[nH]n3)cc2c1 [Example 248, (1H-Pyrazol-3-yl)-(1-pyridin-4-yl-isoquinolin-3-yl)-amine]	3440
Cc1cc(Nc2cc3ccccc3c(Oc3ccccc3Cl)n2)n[nH]1 [Example 23, [1-(2-Chloro-phenoxy)-isoquinolin-3-yl]-(5-methyl-1H-pyrazol-3-yl)-amine]	1660
COc1ccc2c(-c3ccc4ccccc4c3)nc(Nc3cc[nH]n3)cc2c1 [Example 265, (6-Methoxy-1-naphthalen-2-yl-isoquinolin-3-yl)-(1H-pyrazol-3-yl)-amine]	2970
CCOCCOCCOc1nc(Nc2cc[nH]n2)cc2ccccc12 [Example 110, {1-[2-(2-Ethoxy-ethoxy)-ethoxy]-isoquinolin-3-yl}-(1H-pyrazol-3-yl)-amine]	822
COc1ccc2c(-c3cnn(C)c3)nc(Nc3cc[nH]n3)cc2c1 [Example 135, [6-Methoxy-1-(1-methyl-1H-pyrazol-4-yl)-isoquinolin-3-yl]-(1H-pyrazol-3-yl)-amine]	653

Each compound was assayed on HCT 116 cells (assay: Viability assay in HCT 116 cells (CellTiter-Glo)). Details: 120 h; HCT 116 human colon carcinoma cells, 5 days incubation.
Type: cell-based
Description: Viability Assay in HCT 116 Cells
A viability assay was performed using the CellTiter-Glo® Luminescent Cell Viability Assay (see Promega Corporation's Technical Bulletin No. 288, pp. 1-11 [revised February, 2004] which is hereby incorporated by reference in its entirety). This assay is a homogeneous method of determining the number of viable cells in culture based on quantitation of the ATP present, an indicator of metabolically active cells. The assay is designed for use with multiwell formats, making it ideal for automated high-throughput screening (HTS), cell proliferation and cytotoxicity assays. The homogeneous assay procedure involves adding a single reagent (containing luciferase, luciferan substrate, and buffer) directly to cells cultured in serum-supplemented medium. Cell washing, removal of medium and multiple pipetting steps are not required. The system detects as few as 15 cells/well in a 384-well format in 10 minutes after adding reagent and mixing.
The homogeneous “add-mix-measure” format results in cell lysis and generation of a luminescent signal proportional to the amount of ATP present. The amount of ATP is directly proportional to the number of cells present in culture. The above-referenced assay generates a “glow-type” luminescent signal, produced by the luciferase reaction, which has a half-life generally greater than five hours, depending on cell type and medium used. The extended half-life eliminates the need to use reagent injectors and provides flexibility for continuous or batch mode processing of multiple plates. The unique homogeneous format avoids errors that may be introduced by other ATP measurement methods that require multiple steps.
HCT 116 cells (human colon carcinoma, ATCC-No. CCl-247) were cultivated in RPMI 1640 medium with GlutaMAX™ I (cell culture media that contains L-Alanyl-L-Glutamine [a stabilized form/source of L-Glutamine] from Invitrogen, Cat-No. 61870-010), 5% Fetal Calf Serum (FCS, Sigma Cat-No. F4135 (FBS)); 100 Units/ml penicillin/100 μg/ml streptomycin (=Pen/Strep from Invitrogen Cat. No. 15140). For the assay the cells were seeded in 384 well plates, 1000 cells per well, in the same medium. The next day the test compounds were added in various concentrations ranging from 30 μM to 0.0015 μM (10 concentrations, 1:3 diluted). After 5 days the viability assay was performed according to the instructions of the manufacturer. In brief: the cell-plate was equilibrated to room temperature for approximately 30 minutes and then the CellTiter-Glo™ reagent (which contains luciferase, luciferan substrate, and buffer) was added. The contents were carefully mixed for 15 minutes to induce cell lysis. After 45 minutes the luminescent signal was measured in Victor 2, (scanning multiwell spectrophotometer, Wallac).
1st. Day: • Medium: RPMI 1640 with GlutaMAX™ I (Invitrogen, Cat-No. 61870), 5% FCS (Sigma Cat.-No. F4135), Pen/Strep (Invitrogen, Cat No. 15140). • HCT116 (ATCC-No. CCl-247): 1000 cells in 60 μl per well of 384 well plate (Greiner 781098, μClear-plate white) • After seeding incubate plates 24 h at 37° C., 5% CO2 2nd. Day: Induction (Treatment with Compounds, 10 Concentrations):
In order to achieve a final concentration of 30 μM as highest concentration 3.5 μl of 10 mM compound stock solution were added directly to 163 μl media. Then step e) of the dilution procedure described below, was followed.
In order to achieve the second highest to the lowest concentrations, a serial dilution with dilution steps of 1:3 was followed according to the procedure (a-e) as described here below: a) for the second highest concentration add 10 μl of 10 mM stock solution of compound to 20 μl dimethylsulfoxide (DMSO) b) dilute 8×1:3 (always 10 μl to 20 μl DMSO) in this DMSO dilution row (results in 9 wells with concentrations from 3333.3 μM to 0.51 μM) c) dilute each concentration 1:47.6 (3.5 μl compound dilution to 163 μl media) […]

SMILES	IC50 [nM]
COc1ccc2c(-c3ccc4ccccc4c3)nc(Nc3cc(C)[nH]n3)cc2c1 [Example 183, (5-Methyl-1H-pyrazol-3-yl)-(1-naphthalen-2-yl-6-methoxy-isoquinolin-3-yl)-amine]	4010
COc1cc2cc(Nc3cc(C)[nH]n3)nc(OC3CCCC3)c2cc1OC [Example 117, (1-Cyclopentyloxy-6,7-dimethoxy-isoquinolin-3-yl)-(5-methyl-1H-pyrazol-3-yl)-amine]	666
COc1ccc2c(Nc3ccc(Br)cc3)nc(Nc3cc(C)[nH]n3)cc2c1 [Example 275, N^1-(4-Bromo-phenyl)-6-methoxy-N^3-(5-methyl-1H-pyrazol-3-yl)-isoquinoline-1,3-diamine]	995
